Test results: US20140087944A1, “COMPOSITIONS AND METHODS FOR ENHANCING PLANT GROWTH” (NOVOZYMES BIOAG A/S, priority 2012, published 2014)

How the values were obtained:
Assay type in all cases: in vivo
[1] = test system: corn seedling; test: Corn seedling root growth after seed treatment, Petri plate germination, WinRhizo root scanner (Examples 1 and 2)
Description: An experiment was performed to determine the effect of gluconolactone on corn seedling root growth parameters. Unsterilized corn seeds (Peterson Hybrid corn 98L90GTCBLL pre-treated with fungicide Acceleron) were treated with water (control) and gluconolactone solutions (1 and 10 mg/L distilled water). In a clear plastic bag (25 cm×25 cm), 100 gram seeds were treated with 500 μl water (for control). Gluconolactone treatments of 1 and 10 mg/L included 250 μl water+250 μl gluconolactone solution with vigorous shaking. Four hours after treatment, 10 seeds were plated in 150 mm×15 mm polystyrene Petri plates (Fisherband) on 5⅜″ germination paper circle (Anchor Paper Co., Saint Paul, Mn) and moistened with 12 ml distilled water. Four Petri plates were prepared per treatment as 4 replicates. Petri plates were then placed in the dark in under-counter cabinets in the lab at 24° C. for 7 days. After 7 days, seedlings were removed from the cabinets, exposed to light, and their main roots severed and measured for various root parameters with WinRhizo root scanner (Regent Instruments Inc., WinRhizo Pro 2007). For all statistical analysis, student t-test was applied using JMPv.9 statistical software.
An experiment was designed to evaluate if any gluconolactone concentration between 1.0-10 mg/L and below 1.0 mg/L has an optimum effect on influencing seedling root growth. Example 2 was conducted according to the protocols of Example 1. Accordingly, gluconolactone concentrations of 5.0 mg/L, 1.0 mg/L, and 0.5 mg/L, were evaluated.

[2] = test system: lentil seedlings; test: Stress tolerance of lentil seedlings at 8° C., root growth parameters (Example 11); conditions: seven days after plating, 1.0 mg/L gluconolactone, 100 mg/L glutathione, 100 mg/L PADG
Description: The effect of antioxidants on stress tolerance by lentil seedlings at 8° C. was evaluated. Lentil seeds treated with the treatment solutions at 5 ml/kg of seed. […] Treated seeds were plated in large Petri plates on germination paper moistened with deionized water. Plates were incubated at 8° C. in a walk in cold room. Seven days after plating, seedling roots were measured for various growth parameters.

[3] = test system: green lentil seedlings; test: Growth of seedlings in water-agar medium in test tube (Example 3), lentil
Description: (§1) The effect of gluconolactone on growth of seedlings of various crops was examined. Corn, green lentil and yellow pea seeds (100 g) were treated with 1.0 mg/L gluconolactone and control seeds were treated with distilled water according to the protocols of Example 1. After treatments, seeds were allowed to dry overnight. One day after treatment, seeds were placed in 25×150 mm glass test tubes containing 40 ml of 5% water-agar solidified medium. Seeds were placed on the surface of medium in each test tube. Test tubes were then placed in a rack and kept in the lab under diffuse light. As the treated seeds were not sterilized, sterilization of the agar medium was not maintained and the test tubes were kept uncapped. Because of the agar medium being without any sugar, the occurrence of contamination was minimal for up to 10 days. The number of seeds per treatment was 10.

[4] = test system: corn seedlings; test: Growth of seedlings in water-agar medium in test tube (Example 3), corn
Description: as §1

[5] = test system: soybean; test: Performance of rhizobial inoculants for soybean seeds, pod yield (Example 10)
Description: The effect of gluconolactone on the performance of rhizobial inoculants for soybean seeds was evaluated to see if soybean production could be enhanced. 1 mg/L of gluconolactone was added to rhizobial inoculants products Cell-Tech® and Optimize-400® (both from Novozymes Biologicals Inc.). Seed treatments were performed following the instruction cited in the product labels. The total liquid dose going onto soybean seeds was maintained the same when gluconolactone was added. Control seeds were treated with water. About 100 g seed was treated in a clear plastic bag (25 cm×25 cm) with treatment solutions. Seeds were planted 2 hours after treatment in […] containing Fafard soilless mix in greenhouse. 3 plants were allowed to grow per pot and there were 5 pots per treatment. Pods were harvested 6 weeks after planting.

[6] = test system: yellow pea seedlings; test: Growth of seedlings in water-agar medium in test tube (Example 3), pea
Description: as §1

[7] = test system: soybean; test: Soybean pod yield in greenhouse, gluconolactone with isoflavonoids (Example 8); conditions: for yield increase over Cue®: gluconolactone added with Cue®; for soybean pod yield, Fresh Weight: gluconolactone 1 mg/L, pods harvested after 6 weeks
Description: Cue® is a genistein/daidzein isoflavonoid product available from Novozymes Biologicals, Inc. Cue® is used as a soybean seed treatment and the effect of gluconolactone in combination with flavonoids was evaluated to see if soybean production could be enhanced. Gluconolactone was prepared with Cue®. Daidzein, another isoflavonoid, was similarly prepared with gluconolactone with daidzein having the same isoflavonoid concentration as Cue®.
About 100 g soybean seeds were treated with 1 mg/L treatment solutions of gluconolactone and 200 μl of CruiserMaxx® Beans (Syngenta) fungicide+170 μl distilled water+30 μl Cue® or daidzein. For control, a total of 200 μl water was used with 200 μl CruiserMaxx® Bean fungicide. One day after seed treatments, seeds were planted in greenhouse in 1 gallon plastic pots containing soilless mix Fafard 3B. There were 3 plants/pot and 4 pots/treatment. Soybean plants were occasionally fertilized with 20-15-20 NPK fertilizer. Pods were harvested after 6 weeks. Average pod fresh weights were analyzed by student-t test using JUMP statistical software.

[8] = Example 1, GL 1 mg/L seed treatment, main root, 7 days
[9] = Example 1, GL 1 mg/L seed treatment, main root, 7 days, listed as GL
[10] = Example 1, GL 10 mg/L seed treatment, main root, 7 days
[11] = Example 1, GL 10 mg/L seed treatment, main root, 7 days, listed as GL
[12] = Example 2, GL 0.5 mg/L seed treatment
[13] = Example 2, GL 1.0 mg/L seed treatment
[14] = Example 2, GL 5.0 mg/L seed treatment
[15] = gluconolactone 1 mg/L seed treatment, harvested 10 days after planting
[16] = gluconolactone 1 mg/L, non-significantly

O=C1O[C@H](CO)[C@@H](O)[C@H](O)[C@H]1O [Gluconolactone, gluconolactone]
Diameter [1, 8]: 0.940a mm | Surface area [1, 8]: significantly higher than control | Volume [1, 8]: significantly higher than control | Length ([1]; Example 1, GL 1 mg/L seed treatment, main root, 7 days in dark at 24° C.): significantly higher than control | Length ([1]; Example 1, GL 1 mg/L seed treatment, main root, 7 days in dark at 24° C., listed as GL): 7.108a cm | Surface area [1, 9]: 2.128a cm^2 | Volume [1, 9]: 0.051a cm^3 | Diameter [1, 10]: did not show any difference | Length [1, 10]: did not show any difference | Surface area [1, 10]: did not show any difference | Volume [1, 10]: did not show any difference | Length [1, 11]: 6.282ab cm | Surface area [1, 11]: 1.748ab cm^2 | Volume [1, 11]: 0.039ab cm^3 | Diam [1, 12]: 1.190a mm | Length [1, 12]: 6.778ab cm | Root Volume [1, 12]: 0.076a cm3 | Diam [1, 13]: 1.116b mm | Length [1, 13]: optimum dose | Root Volume [1, 13]: 0.070ab cm3 | Length ([1]; Example 2, GL 1.0 mg/L seed treatment, listed as GL): 7.048a cm | Diam [1, 14]: 1.149ab mm | Length [1, 14]: least effective | Root Volume [1, 14]: 0.063b cm3 | Length ([1]; Example 2, GL 5.0 mg/L seed treatment, listed as GL): 6.054b cm | No. of lateral roots [2]: 2.935 ab | Seedling Root Length [2]: 2.895 a cm | Surface area [2]: 0.9457 a cm^2 | Volume [2]: 0.02474 a cm^3 | No. of lateral roots ([2]; listed as gluconolactone): significantly increased | Seedling Root Length ([2]; listed as gluconolactone): significantly increased | Surface area ([2]; listed as gluconolactone): significantly increased | Volume ([2]; listed as gluconolactone): significantly increased | Seedling dry weight [3, 15]: 0.083a* g | average plant dry biomass higher (than control) ([3]; gluconolactone 1 mg/L, significantly): 38.3% | Seedling dry weight [4, 15]: 0.606a g | average plant dry biomass higher (than control) [4, 16]: 6.3% | % increase (dry pod yield) ([5]; 1 mg/L gluconolactone added to Cell-Tech, over Cell-Tech alone): 3.36% | % increase (dry pod yield) ([5]; 1 mg/L gluconolactone added to Optimize-400, over Optimize-400 alone): 4.84% | Seedling dry weight [6, 15]: 0.483a g | average plant dry biomass higher (than control) [6, 16]: 5.0% | yield increase over Cue® ([7]; 1st trial): 6% | yield increase over Cue® ([7]; 2nd trial): 9.7% | yield increase over Cue® ([7]; 3rd trial): 0.6% | yield increase (over daidzein alone) ([7]; gluconolactone added with daidzein, in 2 out of 3 trials): approximately 2.5%

O=c1c(-c2ccc(O)cc2)coc2cc(O)ccc12 [Daidzein, reference compound]
soybean pod yield, Fresh Weight ([7]; 1st trial): 36.782 g | soybean pod yield, Fresh Weight ([7]; 2nd trial): 36.4 g | soybean pod yield, Fresh Weight ([7]; 3rd trial): 32.482 g
